Results reported in US10512670B2, “Pharmaceutical composition for preventing or treating hair loss comprising chemokine (C-X-C motif) ligand 1 (CXCL1) protein or CXCL1 protein and minoxidil as active ingredient” (SCM LIFESCIENCE CO., LTD., priority 2016, dated 2019).

Assays:
[1] = tested on: C3H/HeN mouse; assay: hair generation test in hair-removed mouse, application of minoxidil and CXCL1 protein to back skin; assay type: in vivo; details: applied to back skin for 14 days (FIG. 5); PBS-alone 20 mg
Description: In addition, in the case of combining and using the minoxidil and the CXCL1 protein which were commercialized as a hair generation agent, an experiment for verifying whether the hair generation effect may be better was performed. First, for an experiment for hair regeneration, long hair of a 7-week-old C3H/HeN mouse and the like was shortly cut by using a hair cutting machine and thereafter, the hair was completely removed by using a hair removal agent. After the hair-removed mouse was stabilized for one day, a recombinant protein CXCL1 was mixed with 2% minoxidil (Women's Rogaine, Johnson & Johnson Healthcare Products, USA) to be 1 μg/ml and 10 μg/ml, respectively. The mixture of the minoxidil and the CXCL1 protein was applied to the back skin of the hair-removed mouse for 14 days by […] per day. As a control, a PBS-alone applied group and a 2% minoxidil-alone treated group were set. The hair generation in the back of the mouse was tracked and observed for 14 days and newly generated hair was obtained again and the weight was measured, and the result was illustrated in FIGS. 4 and 5.

[2] = tested on: C3H/HeN mouse; assay: hair generation test in hair-removed mouse, subcutaneous injection of CXCL1 protein; assay type: in vivo
Description: For a test for verifying a hair generation effect, the back of a 7-week-old C3H/HeN mouse was stabilized by removing hair by using a hair removal agent. After one day, 100 ng/ml of a human chemokine (C-X-C motif) ligand 1 (CXCL1) (SEQ ID NO:1) protein was subcutaneously injected to the back once. As a control, phosphate buffered saline (PBS) including 0.1% BSA at the same volume lysed with the CXCL1 protein was subcutaneously injected. Thereafter, the hair generation of the back of the hair-removed mouse was traced and observed for 15 days. A photograph of tracing and observing the back of the mouse with hair generation was illustrated in FIG. 2.
Further, after 15 days, the hair of the back of the mouse with newly hair generation was removed by using a knife and then the result of measuring the weight of the obtained hair was illustrated in FIG. 3.

[3] = tested on: human dermal papilla cell (DPC); assay: human dermal papilla cell (DPC) proliferation test; assay type: cell-based; details: 1 ng/ml or 5 ng/ml treated to DPC, 40 hrs, compared to cells without CXCL1 protein (FIG. 1)
Description: A human dermal papilla cell (DPC) proliferation test which is a representative in vitro cell test system for measuring hair proliferation was performed. 1 ng/ml or 5 ng/ml of the CXCL1 protein in Example 1 was treated to DPC, proliferation for 40 hrs was measured, and the result was illustrated in FIG. 1.

`Nc1cc(N2CCCCC2)nc(N)[n+]1[O-]` [minoxidil] was tested, and the “amount of newly generated hair” value [1] was “about 30 mg”.
“chemokine (C-X-C motif) ligand 1 (CXCL1) [CXCL1 protein]” was tested, and the hair weight ([2]; 100 ng/ml subcutaneously injected once, newly generated hair after 15 days (FIG. 3), control 40 mg) was 80 mg, the “hair generation of the back (photograph)” value ([2]; 100 ng/ml subcutaneously injected to the back once, observed for 15 days, compared with control (FIG. 2)) was “hair generation was more excellent” and the “new hair relative to PBS-administered group” value ([2]; CXCL1 protein-alone administration) was “about two times greater”. For the same compound, the cell proliferation [3] was “cell proliferation was increased”.
